Measurements reported in ChEMBL document CHEMBL3108715, “Pan-histone demethylase inhibitors simultaneously targeting Jumonji C and lysine-specific demethylases display high anticancer activities” (J Med Chem, 2014).
Calls of active or inactive are those of the source.

Assays:
Format in all cases: functional, cell-based
[1] = tested on: HCT-116; assay: Cytotoxicity against human HCT116 cells at 50 uM after 72 hrs
[2] = tested on: LNCaP; assay: Antimigratory activity against human LNCAP cells at 50 uM after 72 hrs
[3] = tested on: LNCaP; assay: Cytotoxicity against human LNCAP cells at 50 uM after 72 hrs
[4] = tested on: HCT-116; assay: Antimigratory activity against human HCT116 cells at 50 uM after 72 hrs

Measured: Activity

O=C(CCCCCCC(=O)Nc1ccccc1)NO
active: all assays above
